Experimental data from PMC10976043, “Function and Mechanism of Antiviral Wasp Venom Peptide Protopolybia-MP III and Its Derivatives against HSV-1” (Toxins, 2024).
Read-outs that look alike come from different tables or passages of the source. Ends that are not written are not given here.

Columns and labels:
HSV-1 [1] = type: cell-based, herpes simplex virus type 1; settings: for effect on intracellular HSV-1 RNA: different concentrations, HSV-1 MOI 1, 24 h, qPCR
Experimental: (§1) (A) Amino acid sequence of Protopolybia-MP III. Basic residues are labeled blue, and acidic residues are labeled red. (B,C) Suppression of intracellular HSV-1 infection by Protopolybia-MP III. Cells were preincubated with Protopolybia-MP III at different concentrations or PBS for 1 h and then infected with HSV-1 at a multiplicity of infection (MOI) of 1. After 24 h, the cells were collected. Intracellular HSV-1 RNA was analyzed by qPCR (B), and intracellular HSV-1 ICP0 protein levels were analyzed by Western blotting (C). (D) Suppression of Protopolybia-MP III on extracellular HSV-1 particles. Cells were treated with Protopolybia-MP III at different concentrations or PBS for 24 h, and then the supernatant was collected and evaluated in a plaque formation assay. (E) Cytotoxicity of Protopolybia-MP III to Vero cells. Cells were treated with Protopolybia-MP III or PBS at different concentrations for 24 h, and then the cytotoxicity was determined by CCK8 assay. * p < 0.05. ** p < 0.01. *** p < 0.001.
(§2) Figure 2 Protopolybia-MP III inhibits HSV-1 replication in human cell lines. (A) Cytotoxicities of Protopolybia-MP III to A549 cells, HCEC, and SK-N-MC. Cells were treated with Protopolybia-MP III at different concentrations or PBS for 24 h, and then cytotoxicities were determined by the CCK8 assay. (B,C) Suppression of intracellular HSV-1 infection by Protopolybia-MP III in A549 cells, HCEC, and SK-N-MC. Cells were preincubated with Protopolybia-MP III at different concentrations or PBS for 1 h and then infected with HSV-1 at an MOI of 1. After 24 h, the cells were collected. Intracellular HSV-1 RNA was analyzed by qPCR (B), and intracellular HSV-1 ICP0 protein expression levels were analyzed by Western blotting (C). (D) Inhibition of Protopolybia-MP III on extracellular HSV-1 particles in A549 cells, HCEC, and SK-N-MC. Cells were treated with Protopolybia-MP III at different concentrations or PBS for 24 h, and then the supernatant was collected and evaluated in a plaque formation assay. * p < 0.05. ** p < 0.01. *** p < 0.001.
HSV-1 was kindly provided by Professor Zhijian Cao of Wuhan University. Cells were infected with HSV-1 at an MOI of 1 for 24 h. Then, cells were collected for qPCR, Western blotting, and immunofluorescence assays, and the extracellular supernatant was used for plaque formation assays.
Cells were collected and lysed using TRIzol reagent (Beyotime Biotechnology, Shanghai, China) to release the intracellular total RNA, followed by precipitation with isopropanol. The first-strand cDNA was reverse-transcribed by the HiScript III 1st Strand cDNA Synthesis Kit (+gDNA wiper) (Vazyme, Nanjing, China). The cDNA was quantitated by qPCR with primers using Taq Pro Universal SYBR qPCR Master Mix (Vazyme). The HSV-1 primers were 5′-[…]-3′ (sense) and 5′-[…]-3′ (antisense). The monkey GAPDH primers were 5′-[…]-3′ (sense) and 5′-[…]-3′ (antisense). The human GAPDH primers were 5′-[…]-3′ (sense) and 5′-[…]-3′ (antisense). qPCR experiments were performed on a Bio-Rad CFX96 Touch (Pleasanton, CA, USA) according to the manufacturer’s instructions.

HSV-1 [2] = experiment: Plaque formation assay of extracellular HSV-1 particles; type: cell-based, herpes simplex virus type 1; settings: supernatant in plaque formation assay
Experimental: as §1, §2
Vero cells seeded in a 24-well plate at 100% confluence were infected with virus diluent or supernatant. After 1 h of absorption at 37 °C, the supernatant was removed. Cells were washed three times with PBS and replenished with a plaque-covering layer (MEM with 2% FBS and 1.5% carboxymethylcellulose). After an incubation period of approximately 3 days, the cells were stained with 1% crystal violet containing 10% methanol for 0.5 h. Then, the plaques were counted, and the viral titer was calculated according to the plaque number and dilution.

Vero cells = experiment: CCK8 cytotoxicity assay, Vero cells; type: cell-based, monkey; settings: 40 μg/mL, 24 h
Experimental: as §1
(§3) Cells were seeded in a 96-well plate (7000–10,000 cells per well) and cultured at 37 °C overnight. Peptides in a series of concentrations were added to the medium, and cells were then incubated at 37 °C for 24 h. […] Finally, the absorbance was measured at 450 nm using a microplate reader (BioTek, Winooski, VT, USA).

A549 cells = experiment: CCK8 cytotoxicity assay, A549 cells; type: cell-based, human; settings: 40 μg/mL, 24 h
Experimental: as §2, §3

[3] = tested on: human neuroepithelial cells (SK-N-MC); experiment: CCK8 cytotoxicity assay, SK-N-MC; type: cell-based; settings: 40 μg/mL, 24 h
Experimental: as §2, §3

INWLKLGKAVIDAL-NH2 [Protopolybia-MP III]
50% inhibitory concentration (IC50) against HSV-1 RNA (HSV-1 [1]; 1 h): 5.132 ± 1.054 µg/mL
inhibition rate on intracellular HSV-1 RNA (HSV-1 [1]; 1 h, 5 μg/mL): 50%
inhibition rate on intracellular HSV-1 RNA (HSV-1 [1]; 1 h, 10 μg/mL): 73%
inhibition rate on intracellular HSV-1 RNA (HSV-1 [1]; 1 h, 20 μg/mL): 94%
effect on intracellular HSV-1 RNA (HSV-1 [1]; A549 cells): suppressed HSV-1 RNA
effect on intracellular HSV-1 RNA (HSV-1 [1]; HCEC): suppressed HSV-1 RNA
effect on intracellular HSV-1 RNA (HSV-1 [1]; SK-N-MC): suppressed HSV-1 RNA
extracellular HSV-1 level versus PBS (HSV-1 [2]; A549 cells treated 24 h): lower
extracellular HSV-1 level versus PBS (HSV-1 [2]; HCEC treated 24 h): lower
extracellular HSV-1 level versus PBS (HSV-1 [2]; SK-N-MC treated 24 h): lower
extracellular HSV-1 particles (plaques) (HSV-1 [2]; Vero cells treated 24 h): fewer plaques
cytotoxicity to Vero cells (Vero cells): almost nontoxic
cytotoxicity to A549 cells (A549 cells): almost nontoxic
cytotoxicity to SK-N-MC [3]: almost nontoxic
